{
  "source": "patent US20170328922A1",
  "about": "“METHODS AND PRODUCTS FOR LABELLING LIPIDS” (UNIVERSITY OF SOUTH AUSTRALIA, priority 2014, published 2017)",
  "key": {"[1]": {"assay": "Rhenium molecular probe-lipid overlay (dot blot)", "assay_type": "binding", "parameters": "key to interaction with PE (dot blot): ✓ indicates a positive interaction; x indicates no interaction", "protocol": "The experimental protocol probe-lipid overlay was as follows: 50 μM of each lipids was loaded on to PVDF membranes (Perkin Elmer, USA), which were then incubated with molecular probes. PhenCyano and PhenPyridyl were assessed against eleven lipids including; sphingomyelin (Cat # S0756, Sigma Aldrich, USA), sphingosine (Cat # S7049; Sigma Aldrich, USA), L-phosphatidylethanolamine (Cat # P7943, Sigma Aldrich, USA), monosialodanglioside (GM1; Cat # G7641, Sigma Aldrich, USA), oleoly-L-?-lysophosphatidic acid (Cat # L7260, Sigma Aldrich, USA), palmitic acid (Cat # P5917, Sigma Aldrich, USA), sphingomyelin (Cat # S0756, Sigma Aldrich, USA), sphingosine (Cat # S7049; Sigma Aldrich, USA), L-?-phosphatidylethanolamine (Cat # P7943, Sigma Aldrich, USA), monosialodanglioside (GM1; Cat # G7641, Sigma Aldrich, USA), progesterone (Cat #102722, MP Biomedical, USA), ceramide (Cat # C2137; Sigma Aldrich, USA), triacylglycerol mix C2-C10 (Cat #17810, Sigma Aldrich, USA) and cholesteryl acetate (Cat #151114; Sigma Aldrich, USA).\nAll other molecular probes were assessed against a panel of six lipids including; sphingomyelin (Cat # S0756, Sigma Aldrich, USA), sphingosine (Cat # S7049; Sigma Aldrich, USA), L-?-phosphatidylethanolamine (Cat # P7943, Sigma Aldrich, USA), monosialodanglioside (GM1; Cat # G7641, Sigma Aldrich, USA), sphingomyelin (Cat # S0756, Sigma Aldrich, USA), sphingosine (Cat # S7049; Sigma Aldrich, USA), L-?-phosphatidylethanolamine (Cat # P7943, Sigma Aldrich, USA), monosialodanglioside (GM1; Cat # G7641, Sigma Aldrich, USA) and triacylglycerol mix C2-C10 (Cat #17810, Sigma Aldrich, USA).\nLipids were dissolved in ethanol, methanol or isopropanol for loading depending on solubility. Following lipid loading, membranes were left to dry for 20-30 minutes, then they were washed for 10 minutes in cold 10% ethanol, before they were incubated with 10 μM solution of each Rhenium molecular probe in cold 10% ethanol for one hour. Membranes were than washed four times for 10 minutes in cold 10% ethanol prior to imaging. Imaging was performed on an Image Quant Las 4000 (GE, Sweden) luminescent image analyser, with the Rhenium molecular probe being detected by excitation at 460 nm using an epi-blue light source, and detected using an 575 nm ethidium bromide filter."}, "[2]": {"tested_on": "Drosophila fat body tissue", "assay": "Live staining and confocal imaging of explanted fat body tissue", "assay_type": "cell-based", "protocol": "All stocks were maintained in standard medium at 25° C. The yeast GAL4-UAS system was used for targeted gene expression (Brand and Perrimon, 1993). Fat-body specific expression of transgenes from the UAS were driven by CG-GAL4 (Asha et al., 2003). Transgenic UAS-Atg9RNAi stocks (#34901) and UAS-TorTED stocks (#7013) were obtained from the Bloomington Drosophila Stock Centre (Indiana University, IN, USA). Atg8aGFP was driven by an endogenous promoter (Kelso et al., 2004).\nBromophenol-blue was added to the fly media and used to define different developmental time points. […] Newly formed white pupae (0 h PF), were isolated onto moist filter paper and incubated at 25° C. for either two hours (+2 h PF) or four hours (+4 h PF).\nThird instar larvae at −8 h PF were removed from standard media (normally feeding at this developmental stage) and placed on filter paper either soaked in 5% (w/v) sucrose (for amino acid deprivation), or 5% (w/v) tryptone pancreatic digest of casein (BD Bioscience USA; for carbohydrate deprivation), or soaked in water (for complete starvation). Larvae were incubated for 4-5 hours prior tissue isolation and imaging.\nFat body tissue was dissected into PBS from Drosophila larvae or pupae. The fat body tissue was either incubated with 10 μM tricarbonyl phenanthrolin (4-cyanophenyltretrazolato) Rhenium (I) in PBS for 15 minutes at room temperature, or LysoTracker® green (according to manufacturer instructions; Invitrogen, USA) and then mounted in carbomer-940 (Snowdrift farm, Tucson, USA) based optical coupling gel to prevent dehydration prior to imaging (Rothstein et al., 2006). For Oil Red O staining, fat body tissue was fixed in 4% (v/v) paraformaldehyde for 20 minutes, and incubated in 1/100 Oil Red 0 for 30 minutes and then washed in PBS before mounting in 80% glycerol.\nA Ziess LSM710 META NLO confocal microscope (Zeiss, Germany), supplemented with a two-photon Mai-Tai® (tunable Ti:Sapphire femtosecond pulse laser, 710-920 nm, Spectra-Physics, Australia) was used for imaging. The images were acquired using a Plan-APOCHROMAT 63×/NA1.4 oil immersion objective. The Rhenium probe was excited at 830 nm using the two-photon pulse laser and detect at 600-654 nm. LysoTracker® green was imaged by excitation at 488 nm and detected at 497-558 nm. Atg8a-GFP was imaged with the Rhenium probe by excitation at 830 nm and resolved using spectral un-mixing using the Zen software package (based on spectral figure-printing of the two components). The Rhenium probe images and co-location analysis involved at least five separate images from five independent biological replicates, and one representative image from each treatment was selected for presentation (containing a minimum of 2 cells). For image quantification, two regions of interest (ROI) were selected at random with an area of 2500 μm^2 and the number of fluorescent puncta within the area counted, to give a minimum of 10 counts per treatment group. Comparison of means was performed by ANOVA with a Tukey post hoc tested in GraphPad Prism V.6.01 (USA)."}},
  "data": [
    {"molecule": "N#Cc1ccc(-c2nn[n]([Re](=[C]=O)(=[C]=O)=[C]=O)n2)cc1.c1cnc2c(c1)ccc1cccnc12", "note": "[PhenCyano, Triscarbonyl phenanthroline (4-cyanophenyltetrazolato)Rhenium(I)]", "values": [
      {"measurement": "interaction with PE (dot blot)", "setting": "[1]; 10 μM probe, 50 μM lipid on PVDF membrane", "result": "✓"},
      {"measurement": "affinity towards phosphatidylethanolamine (PE), in words", "setting": "[1]; FIG. 7 / FIG. 8", "result": "some affinity"},
      {"measurement": "probe distribution in fat body", "setting": "[2]; 0 h PF, 10 μM probe, 15 minutes", "result": "most of the Rhenium probe was still inside lipid droplets"},
      {"measurement": "probe distribution in fat body", "setting": "[2]; +2 h PF, 10 μM probe, 15 minutes", "result": "dramatic reduction in the amount of Rhenium probe interacting with lipid droplets"},
      {"measurement": "vesicles staining with the probe that were also Atg8a-GFP positive", "setting": "[2]; −4 h PF larvae starved (amino acid and sugar deprivation)", "result": "approximately 90±11%"},
      {"measurement": "probe distribution in fat body", "setting": "[2]; −4 h PF, 10 μM probe, 15 minutes", "result": "interacted with the core of lipid droplets"},
      {"measurement": "probe distribution in fat body", "setting": "[2]; −8 h PF, dominant negative TorTED expression", "result": "almost all of the Rhenium probe in LysoTracker® green positive vesicles"}
    ]}
  ]
}
